Test system: J774A.1 cells
Assay: Viability of J774A.1 cells after thin-film freeze-drying (TFFD), trypan blue stain
Format: cell-based, murine
Description: Excipients that were used for their ability to preserve the cells includes disaccharide such as Trehalose, antioxidants such as EGCG, D-α-tocopherol succinate, D-α-tocopherol PEG1000 succinate, Trolox, glutathione, and L-ascorbic acid, polymers such as PVP-40, P-188, dextrin, dextran, and HSA. An equivalent volume of the above-mentioned excipients in complete DMEM or Dulbecco phosphate buffered saline (DPBS) was mixed with cells at final cell concentration of 2.5×10^6 cells/ml for J774A.1 macrophages or 1.0×10^6 cells/mL for THP-1 cells. Cells mixed with trehalose and antioxidant were incubated at 37° C. in 5% CO2 incubator. Polymers and proteins were added to the cells without incubation. The TFF technique was applied to the cell suspension by dropping them as droplets of 3.6-3.8 mm in diameter, 200 μl in 7-8 drops, from a distance of 1-10 cm onto the surface of a cryogenically cooled glass (˜−80° C. achieved using dry ice), which were then stored in −80° C. for 1 h until the lyophilization process. The lyophilizer shelf temperature was set at −35° C., with vacuum pressure at 100 mTorr for 12 h. To measure the viability of the cells after TFFD, the powders were resuspended in DMEM media or DPBS, and cell viability was assessed after trypan blue stain (0.4%, Gibco, Grand Island, NY) using a TC20 Bio-Rad automatic cell counter (Hercules, CA).

| Structure (SMILES) | effect on J774A.1 cell viability after TFFD (antioxidant at 800 μg/ml) | effect on J774A.1 cell viability after TFFD (antioxidant at 500 µM) |
| --- | --- | --- |
| Cc1c(C)c2c(c(C)c1OC(=O)CCC(=O)O)CC[C@@](C)(CCC[C@H](C)CCC[C@H](C)CCCC(C)C)O2 [D-α-tocopherol succinate] | helped improve the viability | – |
| Cc1c(C)c2c(c(C)c1O)CCC(C)(C(=O)O)O2 (centres unmarked) [Trolox] | – | helped improve the viability |
